This is an account of results in patent US9309242B2, “Substituted pyrido[2,3-b]pyrazines as FGFR kinase inhibitors” (priority 2011, dated 2016).

The target of assay [1] is T1, Ba/F3-FGFR1-transfected cells (Homo sapiens, UniProt P11362).
T1 construct: BAF3-FGFR1 (MIN IL3) pIC50; other: minus IL3
As to the kind of experiment: Ba/F3-FGFR1 (minus IL3) cellular proliferation assay, Alamar Blue. Type of assay: cell-based. As for the experimental part:
(§1) Ba/F3-FGFR1 (Minus IL3 or Plus IL3) (Cellular Proliferation Assay)
(§2) In a 384 well plate, 100 nl of compound dilution in DMSO was sprayed before adding 50 μl cell culture medium (phenol red free RPMI-1640, 10% FBS, 2 mM L-Glutamine and 50 μg/ml Gentamycin) containing 20000 cells per well of Ba/F3-FGFR1-transfected cells. Cells were put in an incubator at 37° C. and 5% CO2. After 24 hours, 10 μl of Alamar Blue solution (0.5 mM K3Fe(CN)6, 0.5 mM K4Fe(CN)6, 0.15 mM Resazurin and 100 mM Phosphate Buffer) was added to the wells, incubated for 4 hours at 37° C. and 5% CO2 before RFU's (Relative Fluorescence Units) (ex. 540 nm., em. 590 nm.) were measured in a fluororescence plate reader.

A further assay concerns the target FGFR3 (h) (Homo sapiens, UniProt P22607). As to the kind of experiment: FGFR3 (enzymatic assay), TR-FRET. The assay is classed as biochemical. Particulars: read-out: FGFR 3 pIC50 (converted). The source says: Time-Resolved Fluorescence Resonance Energy Transfer (TR-FRET) signal (ex340 nm.
The target of the next assay is KDR (h) (Homo sapiens, UniProt P35968). The assay is described as follows: KDR (VEGFR2) (enzymatic assay), TR-FRET. Type of assay: biochemical. Particulars: read-out: VEGFR 2 (KDR) pIC50 (converted). As for the experimental part:
KDR (VEGFR2) (Enzymatic Assay)
In a final reaction volume of 30 μL, KDR (h) (150 ng/ml) was incubated with 50 mM HEPES pH 7.5, 6 mM MnCl2, 1 mM DTT, 0.1 mM Na3VO4, 0.01% Triton-X-100, 500 nM Btn-Flt3 and 3 μM ATP in the presence of compound (1% DMSO final). After incubation for 120 minutes at room temperature the reaction was stopped with 2.27 nM EU-anti P-Tyr, 7 mM EDTA, 31.25 nM SA-XL-665 and 0.02% BSA which was present for 60 minutes at room temperature. Time-Resolved Fluorescence Resonance Energy Transfer (TR-FRET) signal (ex340 nm. Em 620 nm, em 655 nm) was measured afterwards and results are expressed in RFU (Relative Fluorescence Units).

For assay [2], the system named is Ba/F3-FGFR1-transfected cells. As to the kind of experiment: Ba/F3-FGFR1 (plus IL3) cellular proliferation assay, counterscreen with 10 ng/ml murine IL3. Particulars: for IC50: read-out: BAF3-FGFR1 (PLUS IL3) pIC50 (converted). Type of assay: cell-based. As for the experimental part: as §1, §2
(§3) As a counterscreen the same experiment was performed in the presence of 10 ng/ml murine IL3.

In assay [3] the target is Ba/F3-FGFR4-transfected cells (Homo sapiens, UniProt P22455). The assay is described as follows: Ba/F3-FGFR4 cellular proliferation assay, Alamar Blue. The assay is classed as cell-based. As for the experimental part: Ba/F3-FGFR4 (Cellular Proliferation Assay)
Ba/F3-FGFR4-transfected cells, sequence (P22455 whole entry, change not shown): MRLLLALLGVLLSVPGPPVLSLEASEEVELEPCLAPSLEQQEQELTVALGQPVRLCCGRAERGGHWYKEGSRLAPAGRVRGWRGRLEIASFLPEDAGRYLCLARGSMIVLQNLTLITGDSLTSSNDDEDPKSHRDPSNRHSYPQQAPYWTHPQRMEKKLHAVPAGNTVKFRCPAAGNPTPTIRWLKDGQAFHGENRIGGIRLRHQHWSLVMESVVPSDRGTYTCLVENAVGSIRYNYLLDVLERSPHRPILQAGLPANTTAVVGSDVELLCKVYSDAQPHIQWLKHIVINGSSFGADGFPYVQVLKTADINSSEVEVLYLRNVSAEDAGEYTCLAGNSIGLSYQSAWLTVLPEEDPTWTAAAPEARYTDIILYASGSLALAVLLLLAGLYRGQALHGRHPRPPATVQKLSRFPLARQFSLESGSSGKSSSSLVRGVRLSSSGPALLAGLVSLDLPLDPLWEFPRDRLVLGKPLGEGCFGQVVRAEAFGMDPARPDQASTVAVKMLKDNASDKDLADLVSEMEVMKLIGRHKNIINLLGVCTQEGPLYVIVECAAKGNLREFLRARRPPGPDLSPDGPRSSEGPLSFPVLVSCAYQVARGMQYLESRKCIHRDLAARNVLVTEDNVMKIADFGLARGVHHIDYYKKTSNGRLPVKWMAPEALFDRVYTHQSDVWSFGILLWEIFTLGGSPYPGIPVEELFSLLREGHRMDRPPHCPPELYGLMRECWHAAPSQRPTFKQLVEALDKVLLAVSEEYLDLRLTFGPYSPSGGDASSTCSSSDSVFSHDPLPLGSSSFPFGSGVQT
as §2, with “n1” for “nl”, “Ba/F3-FGFR4-transfected” for “Ba/F3-FGFR1-transfected”

Assay [4] concerns Ba/F3-FGFR3-transfected cells. The assay is described as follows: Ba/F3-FGFR3 (plus IL3) cellular proliferation assay, counterscreen with 10 ng/ml murine IL3. Type of assay: cell-based. Particulars: for IC50: read-out: BAF3-FGFR3 (PLUS IL3) pIC50 (converted). As for the experimental part:
(§4) Ba/F3-FGFR3 (Minus IL3 or Plus IL3) (Cellular Proliferation Assay)
as §2, with “Ba/F3-FGFR3-transfected” for “Ba/F3-FGFR1-transfected”
as §3

Assay [5] has as its target T2, Ba/F3-KDR-transfected cells (Homo sapiens, UniProt P35968).
T2 construct: BAF3-KDR (MIN IL3) pIC50; other: minus IL3
As to the kind of experiment: Ba/F3-KDR (minus IL3) cellular proliferation assay, Alamar Blue. The assay is classed as cell-based. As for the experimental part:
(§5) Ba/F3-KDR (Minus IL3 or Plus IL3) (Cellular Proliferation Assay)
as §2, with “n1” for “nl”, “Ba/F3-KDR-transfected” for “Ba/F3-FGFR1-transfected”, “reader. […]” for “reader.”

The next assay concerns the target FGFR2 (h) (Homo sapiens, UniProt P21802). As to the kind of experiment: FGFR2 (enzymatic assay), TR-FRET. Particulars: enzymatic assay, read-out: FGFR 2 pIC50 (converted). Type of assay: biochemical. As for the experimental part:
In a final reaction volume of 30 μL, FGFR2 (h) (150 ng/ml) was incubated with 50 mM HEPES pH 7.5, 6 mM MnCl2, 1 mM DTT, 0.1 mM Na3VO4, 0.01% Triton-X-100, 500 nM Btn-Flt3 and 0.4 μM ATP in the presence of compound (1% DMSO final).

The target of a further assay is FGFR1 (h) (Homo sapiens, UniProt P11362). The assay is described as follows: FGFR1 (enzymatic assay), TR-FRET. The assay is classed as biochemical. Particulars: read-out: FGFR 1 pIC50 (converted).
FGFR1 (h), sequence (P11362 22-822): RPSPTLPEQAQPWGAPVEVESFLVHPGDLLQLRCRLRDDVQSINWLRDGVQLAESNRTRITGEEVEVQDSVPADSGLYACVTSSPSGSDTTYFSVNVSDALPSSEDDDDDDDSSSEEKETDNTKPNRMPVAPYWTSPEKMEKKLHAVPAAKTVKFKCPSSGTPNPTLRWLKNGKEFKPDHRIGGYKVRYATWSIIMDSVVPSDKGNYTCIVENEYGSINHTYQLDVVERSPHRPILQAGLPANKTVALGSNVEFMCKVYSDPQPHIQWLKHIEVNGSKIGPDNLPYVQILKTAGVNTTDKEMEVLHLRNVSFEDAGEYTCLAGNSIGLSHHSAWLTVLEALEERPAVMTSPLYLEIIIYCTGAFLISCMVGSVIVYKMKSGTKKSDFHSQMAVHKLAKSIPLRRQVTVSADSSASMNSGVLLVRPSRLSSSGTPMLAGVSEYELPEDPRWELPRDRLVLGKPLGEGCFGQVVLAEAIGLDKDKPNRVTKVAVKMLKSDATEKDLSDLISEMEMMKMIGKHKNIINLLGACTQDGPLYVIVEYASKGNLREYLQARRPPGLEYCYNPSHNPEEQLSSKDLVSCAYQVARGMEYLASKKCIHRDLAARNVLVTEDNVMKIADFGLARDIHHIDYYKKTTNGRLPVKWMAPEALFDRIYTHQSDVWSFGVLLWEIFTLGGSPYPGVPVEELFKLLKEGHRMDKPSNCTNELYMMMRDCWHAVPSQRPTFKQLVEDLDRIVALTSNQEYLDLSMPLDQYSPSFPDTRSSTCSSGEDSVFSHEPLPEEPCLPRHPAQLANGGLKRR
Assay [6] concerns Ba/F3-KDR-transfected cells. The assay is described as follows: Ba/F3-KDR (plus IL3) cellular proliferation assay, counterscreen with 10 ng/ml murine IL3. The assay is classed as cell-based. Particulars: for BAF3-KDR (PLUS IL3) pIC50: plus IL3 (10 ng/ml murine IL3, counterscreen). As for the experimental part: as §5
as §2, with “n1” for “nl”, “Ba/F3-KDR-transfected” for “Ba/F3-FGFR1-transfected”
as §3

Another assay addresses FGFR4 (h) (Homo sapiens, UniProt P22455). The assay is described as follows: FGFR4 (enzymatic assay), TR-FRET. Type of assay: biochemical. Particulars: FGFR 4 pIC50, enzymatic assay.
Assay [7] has as its target T3, Ba/F3-FGFR3-transfected cells (Homo sapiens, UniProt P22607).
T3 construct: BAF3-FGFR3 (MIN IL3) pIC50; other: minus IL3
As to the kind of experiment: Ba/F3-FGFR3 (minus IL3) cellular proliferation assay, Alamar Blue. Type of assay: cell-based. As for the experimental part: as §4
as §2, with “Ba/F3-FGFR3-transfected” for “Ba/F3-FGFR1-transfected”, “reader. […]” for “reader.”

The mark [8] stands for this setting: average values if tested multiple times.
The mark [9] stands for this setting: plus IL3 (10 ng/ml murine IL3, counterscreen).

Structures are written as SMILES. Counter-ions that a name gives are not always drawn. Like-named read-outs stand apart in the source and are kept apart here. Where only a bound is given, the exact number is not on record here.

T2 sequence (P35968 whole entry, change not shown): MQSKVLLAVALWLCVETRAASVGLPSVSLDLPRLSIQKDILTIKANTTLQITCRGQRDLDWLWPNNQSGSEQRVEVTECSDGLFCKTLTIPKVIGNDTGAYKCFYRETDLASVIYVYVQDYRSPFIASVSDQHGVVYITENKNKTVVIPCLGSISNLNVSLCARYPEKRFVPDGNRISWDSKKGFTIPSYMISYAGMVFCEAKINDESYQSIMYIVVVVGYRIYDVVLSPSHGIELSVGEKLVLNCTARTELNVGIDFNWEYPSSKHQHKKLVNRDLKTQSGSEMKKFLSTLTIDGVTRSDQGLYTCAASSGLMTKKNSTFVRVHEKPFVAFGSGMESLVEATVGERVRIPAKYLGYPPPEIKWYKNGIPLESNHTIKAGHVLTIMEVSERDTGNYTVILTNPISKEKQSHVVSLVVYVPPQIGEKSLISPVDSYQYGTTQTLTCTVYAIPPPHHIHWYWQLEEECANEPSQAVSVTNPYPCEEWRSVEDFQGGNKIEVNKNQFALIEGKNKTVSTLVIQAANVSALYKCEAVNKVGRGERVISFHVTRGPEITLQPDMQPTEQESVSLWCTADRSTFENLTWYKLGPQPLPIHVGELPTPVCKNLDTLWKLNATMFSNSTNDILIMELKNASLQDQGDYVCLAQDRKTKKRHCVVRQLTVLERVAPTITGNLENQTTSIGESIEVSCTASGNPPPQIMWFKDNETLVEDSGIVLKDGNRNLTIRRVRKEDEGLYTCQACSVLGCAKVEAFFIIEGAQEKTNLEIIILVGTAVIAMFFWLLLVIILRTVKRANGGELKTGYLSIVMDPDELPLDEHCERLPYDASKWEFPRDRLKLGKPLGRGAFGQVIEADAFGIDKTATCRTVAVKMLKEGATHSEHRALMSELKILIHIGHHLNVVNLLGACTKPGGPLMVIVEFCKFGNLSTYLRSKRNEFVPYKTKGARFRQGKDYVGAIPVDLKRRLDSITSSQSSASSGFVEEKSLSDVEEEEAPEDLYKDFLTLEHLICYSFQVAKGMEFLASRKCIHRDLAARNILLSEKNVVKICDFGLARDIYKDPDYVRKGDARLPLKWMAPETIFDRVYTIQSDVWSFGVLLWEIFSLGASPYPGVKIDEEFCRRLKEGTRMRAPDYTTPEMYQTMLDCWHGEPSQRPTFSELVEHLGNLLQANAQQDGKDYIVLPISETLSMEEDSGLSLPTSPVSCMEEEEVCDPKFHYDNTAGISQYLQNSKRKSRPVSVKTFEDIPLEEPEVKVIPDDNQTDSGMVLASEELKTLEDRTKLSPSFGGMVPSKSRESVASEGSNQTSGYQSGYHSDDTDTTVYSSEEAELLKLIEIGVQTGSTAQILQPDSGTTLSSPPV
KDR (h), sequence (P35968 20-1356): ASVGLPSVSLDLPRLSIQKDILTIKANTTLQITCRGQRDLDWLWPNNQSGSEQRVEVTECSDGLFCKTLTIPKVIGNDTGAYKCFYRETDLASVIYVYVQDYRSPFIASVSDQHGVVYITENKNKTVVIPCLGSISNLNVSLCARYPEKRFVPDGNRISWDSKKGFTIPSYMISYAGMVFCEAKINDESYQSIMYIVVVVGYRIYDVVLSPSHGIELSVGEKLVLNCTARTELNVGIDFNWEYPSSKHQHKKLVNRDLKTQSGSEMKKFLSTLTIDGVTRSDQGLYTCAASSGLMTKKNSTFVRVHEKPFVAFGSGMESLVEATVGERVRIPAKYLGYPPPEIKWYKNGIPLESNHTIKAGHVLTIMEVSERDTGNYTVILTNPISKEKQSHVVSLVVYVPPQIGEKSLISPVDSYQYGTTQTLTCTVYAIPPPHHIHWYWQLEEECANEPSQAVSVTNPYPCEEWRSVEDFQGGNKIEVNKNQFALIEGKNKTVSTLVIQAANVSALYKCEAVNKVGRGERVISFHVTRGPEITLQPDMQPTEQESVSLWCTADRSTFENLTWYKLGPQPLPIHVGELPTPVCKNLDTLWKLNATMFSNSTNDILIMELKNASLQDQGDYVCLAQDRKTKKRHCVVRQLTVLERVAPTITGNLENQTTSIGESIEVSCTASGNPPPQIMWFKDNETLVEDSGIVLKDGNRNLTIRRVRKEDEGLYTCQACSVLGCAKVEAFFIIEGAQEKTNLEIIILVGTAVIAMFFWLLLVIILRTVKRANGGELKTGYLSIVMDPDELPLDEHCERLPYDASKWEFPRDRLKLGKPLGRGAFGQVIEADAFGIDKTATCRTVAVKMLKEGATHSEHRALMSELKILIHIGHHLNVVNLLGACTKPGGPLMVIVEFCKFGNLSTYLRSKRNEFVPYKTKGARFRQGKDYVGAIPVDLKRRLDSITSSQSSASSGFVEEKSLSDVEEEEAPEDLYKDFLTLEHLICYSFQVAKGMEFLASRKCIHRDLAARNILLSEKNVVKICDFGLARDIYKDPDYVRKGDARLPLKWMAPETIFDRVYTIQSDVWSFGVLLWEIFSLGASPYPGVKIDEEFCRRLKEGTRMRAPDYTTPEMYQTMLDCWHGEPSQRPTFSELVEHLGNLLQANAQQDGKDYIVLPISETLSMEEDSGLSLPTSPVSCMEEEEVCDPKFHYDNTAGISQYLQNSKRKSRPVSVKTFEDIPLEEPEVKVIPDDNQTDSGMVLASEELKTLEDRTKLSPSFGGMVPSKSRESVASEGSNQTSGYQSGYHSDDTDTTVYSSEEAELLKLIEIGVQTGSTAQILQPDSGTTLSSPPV
FGFR2 (h), sequence (P21802 22-821): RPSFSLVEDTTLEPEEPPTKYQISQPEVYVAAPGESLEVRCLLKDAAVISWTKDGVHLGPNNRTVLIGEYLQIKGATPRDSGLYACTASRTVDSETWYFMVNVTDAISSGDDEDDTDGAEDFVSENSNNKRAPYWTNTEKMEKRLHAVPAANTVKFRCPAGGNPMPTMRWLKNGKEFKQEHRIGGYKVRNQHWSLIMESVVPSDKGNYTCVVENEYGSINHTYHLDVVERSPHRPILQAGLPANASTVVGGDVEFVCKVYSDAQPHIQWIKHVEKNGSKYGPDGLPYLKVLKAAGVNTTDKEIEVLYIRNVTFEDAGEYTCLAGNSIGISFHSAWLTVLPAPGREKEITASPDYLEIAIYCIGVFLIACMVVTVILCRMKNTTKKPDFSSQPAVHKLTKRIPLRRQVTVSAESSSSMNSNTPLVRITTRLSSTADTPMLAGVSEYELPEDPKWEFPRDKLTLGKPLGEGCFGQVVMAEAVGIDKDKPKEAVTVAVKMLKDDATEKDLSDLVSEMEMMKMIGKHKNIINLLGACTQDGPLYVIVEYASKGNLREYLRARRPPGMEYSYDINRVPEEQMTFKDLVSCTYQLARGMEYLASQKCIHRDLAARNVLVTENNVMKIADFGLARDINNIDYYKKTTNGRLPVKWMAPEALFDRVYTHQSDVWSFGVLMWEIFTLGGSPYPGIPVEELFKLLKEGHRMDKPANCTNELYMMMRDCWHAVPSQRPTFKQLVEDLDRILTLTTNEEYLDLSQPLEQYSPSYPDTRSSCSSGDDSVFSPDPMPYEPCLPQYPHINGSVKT

Take `CCN(c1ccc2ncc(-c3cnn(C)c3)nc2n1)c1c(F)c(OC)cc(OC)c1F` [Compound 256]: the “BAF3-FGFR1 (MIN IL3) pIC50” value in assay [1] is 8.05. In addition, the IC50 at FGFR3 (h) is 0.708 nM; on KDR (h), 8.71 nM; in [2] it was greater than 10000 nM; in assay [4] it was greater than 10000 nM; on FGFR2 (h), 1.66 nM; at FGFR1 (h), 0.49 nM. Also, the IC50 in assay [6] (read-out: BAF3-KDR (PLUS IL3) pIC50 (converted)) was greater than 10000 nM; on FGFR4 (h) it was 1.02 nM. Also, in [3], the “BAF3-FGFR4 pIC50” value stood at 7.36. Also, the “BAF3-KDR (MIN IL3) pIC50” value in assay [5] worked out at 6.16. Also, the “BAF3-FGFR3 (MIN IL3) pIC50” value in [7] came out at 8.16.
With `COc1cc(OC)cc(N(Cc2ncc[nH]2)c2ccc3ncc(-c4cnn(C)c4)nc3n2)c1` [24-hydrochloric acid salt], the “BAF3-FGFR1 (MIN IL3) pIC50” value in assay [1] was 8.16. Also, the IC50 is 1.02 nM on FGFR3 (h) (setting [8]); 7.24 nM on KDR (h) (setting [8]); 1.41 nM at FGFR2 (h) (setting [8]); 0.776 nM at FGFR1 (h) (setting [8]); 1.2 nM against FGFR4 (h) (setting [8]). For the same compound, the “BAF3-FGFR1 (PLUS IL3) pIC50” value in [2] (setting [9]) is less than 5. Also, in assay [3], the “BAF3-FGFR4 pIC50” value was found to be 7.77. Also, the “BAF3-FGFR3 (PLUS IL3) pIC50” value in assay [4] (setting [9]) is listed as less than 5. Moreover, in assay [5], the “BAF3-KDR (MIN IL3) pIC50” value is 5.92. Further, the “BAF3-KDR (PLUS IL3) pIC50” value in [6] is listed as less than 5. Besides, the “BAF3-FGFR3 (MIN IL3) pIC50” value in assay [7] is reported as 7.96.
Regarding `COc1cc(OC)cc(N(CC(O)C(F)(F)F)c2ccc3ncc(-c4cnn(C)c4)nc3n2)c1` (single isomer, unassigned) [Compound 34], the “BAF3-FGFR1 (MIN IL3) pIC50” value in assay [1] was determined as 7.18. For the same compound, the IC50 was 1.35 nM on FGFR3 (h) (setting [8]); 331 nM at KDR (h) (setting [8]); 4.57 nM on FGFR2 (h) (setting [8]); 3.55 nM on FGFR1 (h) (setting [8]); 7.08 nM against FGFR4 (h) (setting [8]). Also, the “BAF3-FGFR1 (PLUS IL3) pIC50” value in assay [2] (setting [9]) is on record as less than 5. In addition, in [3], the “BAF3-FGFR4 pIC50” value turned out to be 6.64. Moreover, the “BAF3-FGFR3 (PLUS IL3) pIC50” value in assay [4] (setting [9]) was less than 5. The “BAF3-KDR (MIN IL3) pIC50” value in [5] is recorded as less than 5. In addition, in [6], the “BAF3-KDR (PLUS IL3) pIC50” value is less than 5. The “BAF3-FGFR3 (MIN IL3) pIC50” value in assay [7] is listed as 6.97.
As for `COc1cc(OC)cc(N(Cc2ncc[nH]2)c2ccc3ncc(-c4cnn(C)c4)nc3n2)c1` [24-sulphate salt], the “BAF3-FGFR1 (MIN IL3) pIC50” value in assay [1] was found to be 8.29. Also, the IC50 is roughly 0.912 nM at FGFR3 (h) (setting [8]); 13.2 nM on KDR (h) (setting [8]); 1.29 nM at FGFR2 (h) (setting [8]); 0.55 nM on FGFR1 (h) (setting [8]); 0.759 nM against FGFR4 (h) (setting [8]). Further, the “BAF3-FGFR1 (PLUS IL3) pIC50” value in [2] (setting [9]) is less than 5. In assay [3], the “BAF3-FGFR4 pIC50” value turned out to be 7.57. For the same compound, in [4] (setting [9]), the “BAF3-FGFR3 (PLUS IL3) pIC50” value is less than 5. Also, the “BAF3-KDR (MIN IL3) pIC50” value in assay [5] is 6.15. Besides, in assay [6], the “BAF3-KDR (PLUS IL3) pIC50” value is less than 5. Also, in [7], the “BAF3-FGFR3 (MIN IL3) pIC50” value is on record as roughly 8.15.
In the case of `COc1cc(OC)cc(N(CCCO)c2ccc3ncc(-c4cnn(C)c4)nc3n2)c1` [Compound 18], the “BAF3-FGFR1 (MIN IL3) pIC50” value in assay [1] was determined as 7.4. Moreover, the IC50 at FGFR3 (h) (setting [8]) is 1 nM; at KDR (h) (setting [8]) it was 50.1 nM; in assay [2] (setting [9]) it was greater than 10000 nM; in assay [4] (setting [9]), greater than 10000 nM; on FGFR2 (h) (setting [8]), 3.98 nM; on FGFR1 (h) (setting [8]), 2 nM. The IC50 against FGFR4 (h) (setting [8]) is 3.16 nM. The “BAF3-FGFR4 pIC50” value in assay [3] is roughly 6.64. Also, in [5], the “BAF3-KDR (MIN IL3) pIC50” value is on record as 5.5. The “BAF3-FGFR3 (MIN IL3) pIC50” value in [7] is given as 7.3.
For `COc1cc(OC)c(F)c(N(Cc2ncc[nH]2)c2ccc3ncc(-c4cnn(C)c4)nc3n2)c1F` [Compound 25], the “BAF3-FGFR1 (MIN IL3) pIC50” value in assay [1] is recorded as 8.8. For the same compound, the IC50 was 2.51 nM at FGFR3 (h) (setting [8]); 79.4 nM on KDR (h) (setting [8]); 6310 nM in assay [2] (setting [9]); greater than 10000 nM in assay [4] (setting [9]); 14.1 nM at FGFR2 (h) (setting [8]); 7.94 nM on FGFR1 (h) (setting [8]). This compound also gave an IC50 against FGFR4 (h) (setting [8]) of 3.55 nM. In addition, the “BAF3-FGFR4 pIC50” value in assay [3] was roughly 8.23. The “BAF3-KDR (MIN IL3) pIC50” value in assay [5] stood at 6.7. Also, in assay [7], the “BAF3-FGFR3 (MIN IL3) pIC50” value was found to be 8.5.
